In ChEMBL document CHEMBL6074671, “Discovery of Pyridine-2-Carboxamides Derivatives as Potent and Selective HPK1 Inhibitors for the Treatment of Cancer” (J Med Chem, 2024):
pIC50: −log10 of the molar value. ≈ marks a conversion by molar mass, not a printed value.

Columns and labels:
MC-38 [1] = experiment: Synergistic antitumor activity against mouse MC38 cells implanted in C57BL/6 mouse model assessed as CDI value at low dose, po BID measured after 12 days in presence of anti-PD-1; format: functional; details: time 12 day
[2] = cynomolgus monkey, in vivo, po, 2 mg/kg
[3] = Oral bioavailability n Sprague-Dawley rat at 10 mg/kg; format: ADME, organism-based; details: in vivo
[4] = target: Mitogen-activated protein kinase kinase kinase 7 (Homo sapiens, UniProt O43318); experiment: Inhibition of TAK1 (unknown origin)
[5] = Toxicity in C57BL/6 mouse implanted with mouse MC38 cells assessed as effect on body weight loss at high dose, po BID measured after 12 days in presence of anti-PD-1; format: organism-based; details: in vivo, 288 h, time 12 day
[6] = target: Tyrosine-protein kinase JAK2 (Homo sapiens, UniProt O60674); experiment: Inhibition of JAK2 (unknown origin)
Sequence of Tyrosine-protein kinase JAK2 (O60674 whole entry): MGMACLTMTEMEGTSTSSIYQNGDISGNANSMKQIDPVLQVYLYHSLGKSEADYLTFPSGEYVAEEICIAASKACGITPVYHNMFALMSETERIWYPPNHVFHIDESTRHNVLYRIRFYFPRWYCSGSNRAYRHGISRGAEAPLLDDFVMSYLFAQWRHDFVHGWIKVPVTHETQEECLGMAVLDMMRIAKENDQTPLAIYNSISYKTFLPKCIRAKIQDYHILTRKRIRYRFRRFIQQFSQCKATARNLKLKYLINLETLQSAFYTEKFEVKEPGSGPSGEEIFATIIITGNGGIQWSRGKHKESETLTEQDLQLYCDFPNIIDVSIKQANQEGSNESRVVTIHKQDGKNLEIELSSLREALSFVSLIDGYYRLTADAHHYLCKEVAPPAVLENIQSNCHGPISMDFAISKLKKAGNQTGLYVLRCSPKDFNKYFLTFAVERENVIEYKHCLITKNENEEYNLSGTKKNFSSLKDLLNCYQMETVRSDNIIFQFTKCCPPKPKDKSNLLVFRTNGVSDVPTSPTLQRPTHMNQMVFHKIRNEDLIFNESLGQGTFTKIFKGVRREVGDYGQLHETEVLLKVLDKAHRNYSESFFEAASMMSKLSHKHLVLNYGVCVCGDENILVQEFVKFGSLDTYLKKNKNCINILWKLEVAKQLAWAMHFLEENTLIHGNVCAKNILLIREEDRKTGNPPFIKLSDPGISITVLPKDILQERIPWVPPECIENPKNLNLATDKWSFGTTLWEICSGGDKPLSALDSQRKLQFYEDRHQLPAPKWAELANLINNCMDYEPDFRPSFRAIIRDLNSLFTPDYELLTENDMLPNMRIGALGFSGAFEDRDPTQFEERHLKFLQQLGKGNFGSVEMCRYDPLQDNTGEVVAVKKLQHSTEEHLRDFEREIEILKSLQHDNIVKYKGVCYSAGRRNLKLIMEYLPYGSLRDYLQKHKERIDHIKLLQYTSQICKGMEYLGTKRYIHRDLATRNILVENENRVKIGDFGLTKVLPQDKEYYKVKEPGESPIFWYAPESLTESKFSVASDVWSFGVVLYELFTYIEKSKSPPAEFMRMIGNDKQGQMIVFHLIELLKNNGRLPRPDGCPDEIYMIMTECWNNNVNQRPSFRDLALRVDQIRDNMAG

[7] = target: Proto-oncogene tyrosine-protein kinase Src (Homo sapiens, UniProt P12931); experiment: Inhibition of SRC (unknown origin)
Sequence of Proto-oncogene tyrosine-protein kinase Src (P12931 2-536 limits assumed): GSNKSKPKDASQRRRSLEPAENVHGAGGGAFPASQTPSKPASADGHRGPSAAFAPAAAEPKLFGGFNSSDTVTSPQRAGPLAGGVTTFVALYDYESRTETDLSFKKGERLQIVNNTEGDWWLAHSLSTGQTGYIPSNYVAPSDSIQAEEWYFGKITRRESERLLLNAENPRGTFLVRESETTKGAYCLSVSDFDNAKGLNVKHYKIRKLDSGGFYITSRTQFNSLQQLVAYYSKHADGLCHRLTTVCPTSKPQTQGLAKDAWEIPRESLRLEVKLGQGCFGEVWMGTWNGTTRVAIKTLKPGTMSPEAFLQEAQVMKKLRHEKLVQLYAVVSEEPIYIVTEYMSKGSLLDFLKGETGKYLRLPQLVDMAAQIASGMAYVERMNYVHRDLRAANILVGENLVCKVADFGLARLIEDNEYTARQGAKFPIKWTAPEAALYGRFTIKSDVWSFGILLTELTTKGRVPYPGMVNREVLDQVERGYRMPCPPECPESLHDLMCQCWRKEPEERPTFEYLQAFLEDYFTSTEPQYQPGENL

[8] = Toxicity in C57BL/6 mouse implanted with mouse MC38 cells assessed as effect on body weight loss at low dose, po BID measured after 12 days in presence of anti-PD-1; format: organism-based; details: in vivo, 288 h, time 12 day
[9] = target: Serine/threonine-protein kinase TAO2 (Homo sapiens, UniProt Q9UL54); experiment: Inhibition of TAOK2 (unknown origin)
MC-38 [10] = experiment: Synergistic antitumor activity against mouse MC38 cells implanted in C57BL/6 mouse model assessed as CDI value at high dose, po BID measured after 12 days in presence of anti-PD-1; format: functional; details: time 12 day
[11] = target: Tyrosine-protein kinase Lyn (Homo sapiens, UniProt P07948); experiment: Inhibition of LYNa (unknown origin)
Sequence of Tyrosine-protein kinase Lyn (P07948 whole entry): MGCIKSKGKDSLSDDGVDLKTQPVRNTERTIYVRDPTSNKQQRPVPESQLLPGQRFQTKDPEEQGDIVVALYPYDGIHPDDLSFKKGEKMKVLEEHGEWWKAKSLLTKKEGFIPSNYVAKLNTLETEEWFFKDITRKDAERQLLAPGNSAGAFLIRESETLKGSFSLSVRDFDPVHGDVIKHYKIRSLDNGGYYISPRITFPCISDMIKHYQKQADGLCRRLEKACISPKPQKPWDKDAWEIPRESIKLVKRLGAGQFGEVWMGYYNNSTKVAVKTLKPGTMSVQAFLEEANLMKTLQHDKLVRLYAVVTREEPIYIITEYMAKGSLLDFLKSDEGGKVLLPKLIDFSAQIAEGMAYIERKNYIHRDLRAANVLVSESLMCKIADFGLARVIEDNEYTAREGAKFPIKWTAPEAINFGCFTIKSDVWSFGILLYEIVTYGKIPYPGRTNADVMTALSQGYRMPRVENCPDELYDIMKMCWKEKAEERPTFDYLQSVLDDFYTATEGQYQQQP

MC-38 [12] = experiment: Antitumor activity against mouse MC38 cells implanted in C57BL/6 mouse model assessed as tumor growth inhibition at 12 mg/kg, po BID measured after 12 days relative to control; format: functional; details: MC-38, 288 h, time 12 day, read-out: TGI
CT26 = experiment: Antitumor activity against mouse CT26 cells implanted in Balb/c mouse model assessed as tumor growth inhibition administered as po dose BID measured after 15 days relative to control; format: functional; details: time 15 day
[13] = Solubility in compound in FessIF at pH 5.0 incubated for 24 hrs by HPLC-UV analysis; format: physicochemical
[14] = Plasma protein binding in human assessed as unbound fraction at 2 uM incubated for 4 hrs by LC-MS/MS analysis; format: ADME, cell-free
[15] = Oral bioavailability in Balb/c mouse at 10 mg/kg; format: ADME, organism-based; details: in vivo
Cytochrome P450 3A4 = Cytochrome P450 3A4 (Homo sapiens, UniProt P08684); experiment: Inhibition of CYP3A4 in human liver microsomes using midazolam 1-hydroxylation as substrate incubated for 10 mins in presence of NADPH by LC-MS/MS analysis; format: ADME, Microsome
[16] = Inhibition of pSLP76 in human PBMC cells incubated for 4 hrs by HTRF method; format: cell-based
in vivo [17] = details: Beagle, dog, iv, 1 mg/kg
Description: Volume of distribution in Beagle dog at 1 mg/kg, iv

[18] = target: T1, Mitogen-activated protein kinase kinase kinase kinase 3 (Homo sapiens, UniProt Q8IVH8); experiment: Inhibition of GLK (unknown origin)
T1 sequence (Q8IVH8 whole entry): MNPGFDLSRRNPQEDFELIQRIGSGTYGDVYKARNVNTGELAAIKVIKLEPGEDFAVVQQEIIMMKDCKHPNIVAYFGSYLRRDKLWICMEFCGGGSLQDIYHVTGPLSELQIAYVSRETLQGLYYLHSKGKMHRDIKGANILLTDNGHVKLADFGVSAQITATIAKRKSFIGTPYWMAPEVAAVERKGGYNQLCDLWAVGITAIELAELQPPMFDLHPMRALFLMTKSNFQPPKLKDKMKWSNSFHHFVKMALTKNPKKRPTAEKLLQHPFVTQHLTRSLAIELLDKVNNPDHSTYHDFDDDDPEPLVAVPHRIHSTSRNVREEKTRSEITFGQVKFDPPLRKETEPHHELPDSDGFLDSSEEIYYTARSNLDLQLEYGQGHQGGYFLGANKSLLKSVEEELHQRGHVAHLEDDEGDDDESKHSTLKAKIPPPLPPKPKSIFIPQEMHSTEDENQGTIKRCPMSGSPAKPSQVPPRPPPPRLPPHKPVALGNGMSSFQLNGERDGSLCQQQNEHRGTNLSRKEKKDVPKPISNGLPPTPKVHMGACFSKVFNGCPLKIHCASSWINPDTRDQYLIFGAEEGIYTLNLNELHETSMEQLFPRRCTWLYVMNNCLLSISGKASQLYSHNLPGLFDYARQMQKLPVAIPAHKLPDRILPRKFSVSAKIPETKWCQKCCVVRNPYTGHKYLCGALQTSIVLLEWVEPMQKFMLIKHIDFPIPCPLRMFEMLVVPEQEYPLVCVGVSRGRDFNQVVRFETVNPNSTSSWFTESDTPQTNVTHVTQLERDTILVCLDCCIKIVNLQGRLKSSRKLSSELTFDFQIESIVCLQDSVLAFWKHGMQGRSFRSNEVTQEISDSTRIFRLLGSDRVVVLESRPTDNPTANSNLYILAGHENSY

[19] = target: Voltage-gated inwardly rectifying potassium channel KCNH2 (Homo sapiens, UniProt Q12809); experiment: Inhibition of human ERG expressed in CHO cells; format: toxicity, cell-based
Sequence of Voltage-gated inwardly rectifying potassium channel KCNH2 (Q12809 whole entry): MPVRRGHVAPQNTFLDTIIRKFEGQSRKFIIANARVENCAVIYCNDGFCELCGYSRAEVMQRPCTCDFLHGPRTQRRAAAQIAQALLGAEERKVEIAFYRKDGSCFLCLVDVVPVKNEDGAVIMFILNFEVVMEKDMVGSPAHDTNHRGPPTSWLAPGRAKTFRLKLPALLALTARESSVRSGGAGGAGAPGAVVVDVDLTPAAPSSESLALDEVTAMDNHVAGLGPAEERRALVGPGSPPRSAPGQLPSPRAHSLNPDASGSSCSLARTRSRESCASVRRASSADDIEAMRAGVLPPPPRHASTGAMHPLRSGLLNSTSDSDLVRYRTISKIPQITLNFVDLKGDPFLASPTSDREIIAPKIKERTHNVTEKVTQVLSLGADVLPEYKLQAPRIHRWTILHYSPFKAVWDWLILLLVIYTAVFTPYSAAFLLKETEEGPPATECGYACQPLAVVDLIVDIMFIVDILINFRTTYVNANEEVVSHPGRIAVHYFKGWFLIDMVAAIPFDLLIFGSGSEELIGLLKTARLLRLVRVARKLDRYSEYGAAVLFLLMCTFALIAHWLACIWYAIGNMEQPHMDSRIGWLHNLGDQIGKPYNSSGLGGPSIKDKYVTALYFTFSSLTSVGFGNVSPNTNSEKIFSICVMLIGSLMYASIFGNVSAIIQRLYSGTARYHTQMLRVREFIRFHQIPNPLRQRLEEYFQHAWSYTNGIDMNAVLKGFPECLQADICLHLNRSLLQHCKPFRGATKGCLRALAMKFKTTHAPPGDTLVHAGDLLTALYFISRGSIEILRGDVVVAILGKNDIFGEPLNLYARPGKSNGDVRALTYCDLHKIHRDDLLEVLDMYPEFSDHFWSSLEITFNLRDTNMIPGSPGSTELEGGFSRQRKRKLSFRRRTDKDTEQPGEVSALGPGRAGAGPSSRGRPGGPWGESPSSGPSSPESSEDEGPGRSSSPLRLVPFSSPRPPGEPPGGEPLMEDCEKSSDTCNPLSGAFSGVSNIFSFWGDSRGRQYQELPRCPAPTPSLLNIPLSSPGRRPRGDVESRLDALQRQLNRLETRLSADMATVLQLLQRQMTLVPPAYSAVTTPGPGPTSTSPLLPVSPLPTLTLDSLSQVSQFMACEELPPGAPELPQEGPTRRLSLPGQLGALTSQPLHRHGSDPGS

[20] = target: Interleukin-1 receptor-associated kinase 4 (Homo sapiens, UniProt Q9NWZ3); experiment: Inhibition of IRAK4 (unknown origin)
Sequence of Interleukin-1 receptor-associated kinase 4 (Q9NWZ3 whole entry): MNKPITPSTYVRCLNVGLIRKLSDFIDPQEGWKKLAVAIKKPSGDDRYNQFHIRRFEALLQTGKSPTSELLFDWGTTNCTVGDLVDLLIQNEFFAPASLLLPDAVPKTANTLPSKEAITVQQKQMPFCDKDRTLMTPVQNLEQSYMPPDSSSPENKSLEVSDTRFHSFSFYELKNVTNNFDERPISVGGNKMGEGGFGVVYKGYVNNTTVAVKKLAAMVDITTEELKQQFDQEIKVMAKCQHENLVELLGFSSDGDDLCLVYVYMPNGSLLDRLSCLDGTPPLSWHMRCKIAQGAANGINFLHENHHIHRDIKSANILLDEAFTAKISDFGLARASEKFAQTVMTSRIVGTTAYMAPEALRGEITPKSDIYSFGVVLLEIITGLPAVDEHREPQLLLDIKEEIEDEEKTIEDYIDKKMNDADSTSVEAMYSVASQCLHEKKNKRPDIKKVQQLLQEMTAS

[21] = target: Tyrosine-protein kinase Lck (Homo sapiens, UniProt P06239); experiment: Inhibition of LCK (unknown origin)
Sequence of Tyrosine-protein kinase Lck (P06239 whole entry): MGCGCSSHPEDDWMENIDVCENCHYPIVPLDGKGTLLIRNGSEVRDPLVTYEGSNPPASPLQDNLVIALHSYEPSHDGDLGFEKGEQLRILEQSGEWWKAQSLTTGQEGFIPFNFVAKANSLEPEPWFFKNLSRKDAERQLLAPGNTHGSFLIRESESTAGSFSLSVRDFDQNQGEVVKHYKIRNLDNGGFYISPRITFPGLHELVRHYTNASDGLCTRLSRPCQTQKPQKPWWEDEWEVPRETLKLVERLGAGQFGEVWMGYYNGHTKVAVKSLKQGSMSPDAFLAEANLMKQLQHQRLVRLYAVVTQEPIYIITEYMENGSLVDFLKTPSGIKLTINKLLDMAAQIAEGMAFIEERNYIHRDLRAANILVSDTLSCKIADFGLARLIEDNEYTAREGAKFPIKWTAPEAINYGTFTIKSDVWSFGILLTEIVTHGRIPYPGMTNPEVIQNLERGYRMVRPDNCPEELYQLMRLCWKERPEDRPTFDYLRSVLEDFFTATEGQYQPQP

Cytochrome P450 2C19 = Cytochrome P450 2C19 (Homo sapiens, UniProt P33261); experiment: Inhibition of CYP2C19 in human liver microsomes using S-mephenytoin 4-hydroxylation as substrate incubated for 10 mins in presence of NADPH by LC-MS/MS analysis; format: ADME, Microsome
Sequence of Cytochrome P450 2C19 (P33261 whole entry): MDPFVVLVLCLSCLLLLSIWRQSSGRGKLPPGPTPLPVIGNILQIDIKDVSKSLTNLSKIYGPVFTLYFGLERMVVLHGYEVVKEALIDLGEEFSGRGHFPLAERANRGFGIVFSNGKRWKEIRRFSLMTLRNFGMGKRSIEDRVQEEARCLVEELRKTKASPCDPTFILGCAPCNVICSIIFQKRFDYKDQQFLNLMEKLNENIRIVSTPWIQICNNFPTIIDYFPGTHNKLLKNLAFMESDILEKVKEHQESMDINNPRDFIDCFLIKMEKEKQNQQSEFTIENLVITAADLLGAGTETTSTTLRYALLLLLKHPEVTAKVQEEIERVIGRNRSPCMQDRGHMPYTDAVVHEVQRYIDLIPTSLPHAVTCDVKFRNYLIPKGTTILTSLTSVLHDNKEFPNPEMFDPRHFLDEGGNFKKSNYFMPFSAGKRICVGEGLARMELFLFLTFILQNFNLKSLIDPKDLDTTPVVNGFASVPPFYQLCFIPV

in vivo [22] = details: Sprague-Dawley, rat, iv, 1 mg/kg
Description: Volume of distribution in Sprague-Dawley rat at 1 mg/kg, iv

[23] = Toxicity in C57BL/6 mouse implanted with mouse MC38 cells assessed as increase in survival at low dose, po BID measured after 12 days; format: organism-based; details: in vivo, 288 h, time 12 day
[24] = target: Serine/threonine-protein kinase PAK 3 (Homo sapiens, UniProt O75914); experiment: Inhibition of PAK3 (unknown origin)
[25] = Toxicity in C57BL/6 mouse implanted with mouse MC38 cells assessed as increase in survival at high dose, po BID measured after 12 days in presence of anti-PD-1; format: organism-based; details: in vivo, 288 h, time 12 day
[26] = Genotoxicity in Salmonella typhimurium TA98 incubated for 48 to 72 hrs in presence of S9 fraction by AMES test; format: toxicity, subcellular; details: salmonella enterica subsp. enterica serovar typhimurium, time 48-72 hrs
MC-38 [27] = experiment: Synergistic antitumor activity against mouse MC38 cells implanted in C57BL/6 mouse model assessed as tumor growth inhibition at high dose, po BID measured after 12 days in presence of anti-PD-1 relative to control; format: functional; details: time 12 day
[28] = Inhibition of ABL (unknown origin); set-up: species or system Homo sapiens

`COc1cc(Nc2ccc3c(n2)CN(C)C32CCN(C3COC3)CC2)c(C(N)=O)nc1-c1cccc2c1ncn2C` showed an Activity (MC-38 [1]) of 0.78, an AUC/dose [2] of 560.5 ng·h/mL and a bioavailability [3] of 34.7%. The pIC50 [4] was < 5.00, the Activity [5] was “Non-toxic” and the pIC50 [6] was < 5.00. The pIC50 [7] was 5.68, the Activity [8] was “Non-toxic” and the pIC50 [9] was < 5.00. The Activity (MC-38 [10]) was 0.57, the pIC50 [11] was 5.29 and the inhibition in vivo at 12 mg/kg (MC-38 [12]) was 59.4%. For the same compound, the TGI (CT26) was 64.3%, the solubility at 24 h [13] was 134 µM (≈ 74.3 µg/mL) and the fraction unbound at 4 h, 2 µM [14] was 0.129. For the same compound, the bioavailability [15] was 62.5%, the pIC50 (Cytochrome P450 3A4) was < 4.30 and the pIC50 [16] was 7.70. For the same compound, the Vd (in vivo [17]) was 5.58 L/kg, the pIC50 [18] was 6.49 and the pIC50 [19] was < 5.00. For the same compound, the pIC50 [20] was 5.46, the pIC50 [21] was 6.28 and the pIC50 (Cytochrome P450 2C19) was < 4.30. For the same compound, the Vd (in vivo [22]) was 2.2 L/kg, the Activity [23] was “Non-toxic” and the pIC50 [24] was < 5.00. For the same compound, the Activity [25] was “Non-toxic”, the Activity [26] was “Non-toxic” and the TGI (MC-38 [27]) was 83.3%. The pIC50 [28] was 5.35.
